Test results: patent US20040116346A1, “Affinity small molecules for the EPO receptor” (priority 2002, published 2004)

Tested on: EPO-Receptor down stream signaling pathway in TF-1 or UT-7 cells
Assay: In vitro signaling (EPO-R activation)
Assay type: cell-based
Procedure: UT-7 cells were grown in Minimal Essential Medium Alpha (MEM-α) containing 20% FBS, 1.5 g/L NaHCO3, 5 ng/ml GM-CSF, and 100U Penicillin/100 ug/ml Streptomycin Sulfate (“P/S”), in T150 flasks (60 ml/flask) at 37° C., 5% CO2 to a density of no more than 5×10^5 cells/ml. The cells were starved overnight in MEM-α containing 10% FBS, 1.5 g/L NaHCO3 and P/S in T150 flasks (60ml/flask) at a density of 5×10^5 cells/ml, in 5% CO2, 37° C. The cells were then centrifuged in a swinging-bucket rotor at 200×g for 5 minutes at room temperature. The supernatant was removed, and the cells pooled into one 50 ml conical tube. The cells were washed twice with serum-free medium (MEM-alpha containing 1.5 g/L NaHCO3 and P/S). After the last wash, the cells were resuspended to a density of 1×10^7 cells/ml in serum-free medium. The cells were then placed in 15 ml conical tubes in 1 ml aliquots and incubated with the caps loosened for 1 hour at 37° C., 5% CO2. Every 10 minutes, the lower portion of each tube was tapped (flicked) several times to prevent the cells from settling (please note, this step is very important!)
It was also observed that EPO-R was phosphorylated when stimulated with non-peptide EPO-R modulators. (See FIG. 4) […]

Q: With `Cc1ccc(Cl)cc1Nc1nc2nc(C)c(NCC3CC3)cn2n1` [Compound E5] as the compound, how does the “activation of EPO-R” value read?
A: Its value is “activation of EPO-R”.
